According to patent US10500318B1, “Dosing regimens for treating hypoxia-associated tissue damage” (Temple Therapeutics BV, priority 2018, dated 2019):
Residues, ends and D or L forms follow the SMILES beside them.

Experiments:
HIF-1α = HIF-1α ELISA in normal peritoneal fibroblasts after episodic hypoxia and Ala-Gln treatment; format: cell-based; settings: for HIF-1α 12 hours after hypoxia initiation / HIF-1α 24 hours after hypoxia initiation: NPF
Experimental: Primary cultures of normal peritoneal fibroblasts (NPF) were established and pre-hypoxia samples were taken to determine levels of HIF-1α and Type 1 Collagen (COL1A1) under normoxic conditions prior to exposure to episodic hypoxic environments. Cultured cells were exposed to episodes of hypoxia (2% 02; 0.5, 1, 2, or 4, […] hours), followed by restoration of normoxia (20% O2) and immediate treatment with Ala-[…], 1, 2, or 10 mM). Levels of HIF-1α and COL1A1 were measured at 12 hours and 24 hours following the initiation of hypoxia. All treatments were completed in triplicate. HIF-1α and COL1A1 levels were determined by ELISA (HIF-1α ELISA (ThermoFisher Scientific) or COL1A1 ELISA (LifeSpan Biosciences), respectively, per the manufacturer's protocol). Data were analyzed with one-way ANOVA followed by Tukey's tests with Bonferroni correction. Results for HIF-1α are in Tables 1-3.

[1] = at room temperature; cited from earlier work

## C[C@H](N)C(=O)N[C@@H](CCC(N)=O)C(=O)O [AG, L-alanyl-L-glutamine] (H-Ala-Gln-OH)
HIF-1α; AG 1.0 mM, 12 h post hypoxia initiation, hypoxia time 0.5 h
  HIF-1α difference from untreated controls: 3.6 pg/mg protein
HIF-1α; AG 1.0 mM, 12 h post hypoxia initiation, hypoxia time 1.0 h
  HIF-1α difference from untreated controls: 2.3 pg/mg protein
HIF-1α; AG 1.0 mM, 12 h post hypoxia initiation, hypoxia time 2.0 h
  HIF-1α difference from untreated controls: 2.4 pg/mg protein
HIF-1α; AG 1.0 mM, 12 h post hypoxia initiation, hypoxia time 4.0 h
  HIF-1α difference from untreated controls: 0.9 pg/mg protein
HIF-1α; AG 1.0 mM, 24 h post hypoxia initiation, hypoxia time 0.5 h
  HIF-1α difference from untreated controls: 1.6 pg/mg protein
HIF-1α; AG 1.0 mM, 24 h post hypoxia initiation, hypoxia time 1.0 h
  HIF-1α difference from untreated controls: 3.1 pg/mg protein
HIF-1α; AG 1.0 mM, 24 h post hypoxia initiation, hypoxia time 2.0 h
  HIF-1α difference from untreated controls: 1.8 pg/mg protein
HIF-1α; AG 1.0 mM, 24 h post hypoxia initiation, hypoxia time 4.0 h
  HIF-1α difference from untreated controls: 0.7 pg/mg protein
HIF-1α; AG 1.0 mM, hypoxia time 0.5 h
  HIF-1α 12 hours after hypoxia initiation: 4.2 pg/mg protein
  HIF-1α 24 hours after hypoxia initiation: 3.6 pg/mg protein
HIF-1α; AG 1.0 mM, hypoxia time 1.0 h
  HIF-1α 12 hours after hypoxia initiation: 4.6 pg/mg protein
  HIF-1α 24 hours after hypoxia initiation: 4.6 pg/mg protein
HIF-1α; AG 1.0 mM, hypoxia time 2.0 h
  HIF-1α 12 hours after hypoxia initiation: 3.3 pg/mg protein
  HIF-1α 24 hours after hypoxia initiation: 3.3 pg/mg protein
HIF-1α; AG 1.0 mM, hypoxia time 4.0 h
  HIF-1α 12 hours after hypoxia initiation: 4.9 pg/mg protein
  HIF-1α 24 hours after hypoxia initiation: 4.9 pg/mg protein
HIF-1α; AG 2.0 mM, 12 h post hypoxia initiation, hypoxia time 0.5 h
  HIF-1α difference from untreated controls: 3.1 pg/mg protein
HIF-1α; AG 2.0 mM, 12 h post hypoxia initiation, hypoxia time 1.0 h
  HIF-1α difference from untreated controls: 4.5 pg/mg protein
HIF-1α; AG 2.0 mM, 12 h post hypoxia initiation, hypoxia time 2.0 h
  HIF-1α difference from untreated controls: 2.5 pg/mg protein
HIF-1α; AG 2.0 mM, 12 h post hypoxia initiation, hypoxia time 4.0 h
  HIF-1α difference from untreated controls: 1.4 pg/mg protein
HIF-1α; AG 2.0 mM, 24 h post hypoxia initiation, hypoxia time 0.5 h
  HIF-1α difference from untreated controls: 1.1 pg/mg protein
HIF-1α; AG 2.0 mM, 24 h post hypoxia initiation, hypoxia time 1.0 h
  HIF-1α difference from untreated controls: 5.3 pg/mg protein
HIF-1α; AG 2.0 mM, 24 h post hypoxia initiation, hypoxia time 2.0 h
  HIF-1α difference from untreated controls: 1.9 pg/mg protein
HIF-1α; AG 2.0 mM, 24 h post hypoxia initiation, hypoxia time 4.0 h
  HIF-1α difference from untreated controls: 1.2 pg/mg protein
HIF-1α; AG 2.0 mM, hypoxia time 0.5 h
  HIF-1α 12 hours after hypoxia initiation: 4.7 pg/mg protein
  HIF-1α 24 hours after hypoxia initiation: 4.1 pg/mg protein
HIF-1α; AG 2.0 mM, hypoxia time 1.0 h
  HIF-1α 12 hours after hypoxia initiation: 2.4 pg/mg protein
  HIF-1α 24 hours after hypoxia initiation: 2.4 pg/mg protein
HIF-1α; AG 2.0 mM, hypoxia time 2.0 h
  HIF-1α 12 hours after hypoxia initiation: 3.2 pg/mg protein
  HIF-1α 24 hours after hypoxia initiation: 3.2 pg/mg protein
HIF-1α; AG 2.0 mM, hypoxia time 4.0 h
  HIF-1α 12 hours after hypoxia initiation: 4.4 pg/mg protein
  HIF-1α 24 hours after hypoxia initiation: 4.4 pg/mg protein
HIF-1α; AG 10.0 mM, 12 h post hypoxia initiation, hypoxia time 0.5 h
  HIF-1α difference from untreated controls: 2.6 pg/mg protein
HIF-1α; AG 10.0 mM, 12 h post hypoxia initiation, hypoxia time 1.0 h
  HIF-1α difference from untreated controls: 3.0 pg/mg protein
HIF-1α; AG 10.0 mM, 12 h post hypoxia initiation, hypoxia time 2.0 h
  HIF-1α difference from untreated controls: 1.6 pg/mg protein
HIF-1α; AG 10.0 mM, 12 h post hypoxia initiation, hypoxia time 4.0 h
  HIF-1α difference from untreated controls: 0.3 pg/mg protein
HIF-1α; AG 10.0 mM, 24 h post hypoxia initiation, hypoxia time 0.5 h
  HIF-1α difference from untreated controls: 1.6 pg/mg protein
HIF-1α; AG 10.0 mM, 24 h post hypoxia initiation, hypoxia time 1.0 h
  HIF-1α difference from untreated controls: 3.8 pg/mg protein
HIF-1α; AG 10.0 mM, 24 h post hypoxia initiation, hypoxia time 2.0 h
  HIF-1α difference from untreated controls: 1 pg/mg protein
HIF-1α; AG 10.0 mM, 24 h post hypoxia initiation, hypoxia time 4.0 h
  HIF-1α difference from untreated controls: 0.1 pg/mg protein
HIF-1α; AG 10.0 mM, hypoxia time 0.5 h
  HIF-1α 12 hours after hypoxia initiation: 5.2 pg/mg protein
  HIF-1α 24 hours after hypoxia initiation: 3.6 pg/mg protein
HIF-1α; AG 10.0 mM, hypoxia time 1.0 h
  HIF-1α 12 hours after hypoxia initiation: 3.9 pg/mg protein
  HIF-1α 24 hours after hypoxia initiation: 3.9 pg/mg protein
HIF-1α; AG 10.0 mM, hypoxia time 2.0 h
  HIF-1α 12 hours after hypoxia initiation: 4.1 pg/mg protein
  HIF-1α 24 hours after hypoxia initiation: 4.1 pg/mg protein
HIF-1α; AG 10.0 mM, hypoxia time 4.0 h
  HIF-1α 12 hours after hypoxia initiation: 5.5 pg/mg protein
  HIF-1α 24 hours after hypoxia initiation: 5.5 pg/mg protein
HIF-1α; Average all doses, 12 h post hypoxia initiation, hypoxia time 0.5 h
  HIF-1α difference from untreated controls: 3.1 pg/mg protein
HIF-1α; Average all doses, 12 h post hypoxia initiation, hypoxia time 1.0 h
  HIF-1α difference from untreated controls: 3.27 pg/mg protein
HIF-1α; Average all doses, 12 h post hypoxia initiation, hypoxia time 2.0 h
  HIF-1α difference from untreated controls: 2.17 pg/mg protein
HIF-1α; Average all doses, 12 h post hypoxia initiation, hypoxia time 4.0 h
  HIF-1α difference from untreated controls: 0.87 pg/mg protein
HIF-1α; Average all doses, 24 h post hypoxia initiation, hypoxia time 0.5 h
  HIF-1α difference from untreated controls: 1.43 pg/mg protein
HIF-1α; Average all doses, 24 h post hypoxia initiation, hypoxia time 1.0 h
  HIF-1α difference from untreated controls: 4.07 pg/mg protein
HIF-1α; Average all doses, 24 h post hypoxia initiation, hypoxia time 2.0 h
  HIF-1α difference from untreated controls: 1.57 pg/mg protein
HIF-1α; Average all doses, 24 h post hypoxia initiation, hypoxia time 4.0 h
  HIF-1α difference from untreated controls: 0.67 pg/mg protein
HIF-1α; at 12 and 24 hours, all durations of hypoxia
  effect on HIF-1α as compared to untreated cells: reduction of HIF-1α

## NC(=O)CC[C@H](N)C(=O)O [L-glutamine]
[1]
  water solubility: about 40 g/L
